Read-outs that look alike come from different tables or passages of the source.
Test system: ACC2 CT
Assay: NADH reverse-coupled assay
Type: biochemical, human
Settings: reverse reaction
Description: In the reverse reaction, ACC2 CT catalyzes the production of Acetyl CoA using malonyl CoA and biocytin as the substrates.
The activity of ACC2 CT in the reverse reaction is measured indirectly by coupling the reaction with two other enzymes, malate dehydrogenase and citrate synthase. Malate dehydrogenase converts NAD+ and malate to produce NADH and oxaloacetate. The acetyl CoA produced by the ACC2 CT reverse reaction and the oxaloacetate produced by the malate dehydrogenase reaction are consumed as the substrates for the citrate synthase reaction. The final products of the citrate synthase reaction are citric acid and CoA, but it is the production of NADH that acts as the readout for the activity of ACC2 CT. The conversion of NAD+ to NADH is detected by reading absorbance at 340 nm.
The final assay conditions are 50 nM ACC2 CT, 1 mM Malonyl CoA, 20 mM Biocytin, 8 mM Malic Acid, 3 mM NAD+, 100 units/mL Malate Dehydrogenase, 20 units/mL Citrate Synthase, 50 mM Hepes pH 7.0, 100 mM NaCl, 0.01% Tween 20, and compounds are used with a 200-fold dilution of 100% DMSO stock for a final concentration of 0.5% DMSO.
Absorbance data is collected at 340 nm and 37° C. for at least 30 minutes. Linear kinetic rates (mOD/min) are used to calculate % inhibition values of the compounds tested.

Km (against 50 nM ACC2/20 mM Biocytin, 37° C., absorbance 340 nm, read-out: kM of Malonyl CoA) [µM] | Km (against ACC2/No Biocytin, 37° C., absorbance 340 nm, read-out: kM of Malonyl CoA) [µM] | Km (could not be precisely determined, estimated, read-out: kM of Biocytin) [µM] | SMILES
160 | 130 | – | CC(C)(COP(=O)(O)OP(=O)(O)OC[C@H]1O[C@@H](n2cnc3c(N)ncnc32)[C@H](O)[C@@H]1OP(=O)(O)O)[C@@H](O)C(=O)NCCC(=O)NCCSC(=O)CC(=O)O [Malonyl CoA]
– | – | ~20000 | N[C@@H](CCCCNC(=O)CCCC[C@@H]1SC[C@@H]2NC(=O)N[C@@H]21)C(=O)O [Biocytin]
